{
  "source": "patent EP4562004B1",
  "about": "“NOVEL 7-SUBSTITUTED INDOLE SULFONAMIDE DERIVATIVES” (F. Hoffmann-La Roche AG, priority 2022, dated 2024)",
  "biological_target": "human GPR17 short isoform (Homo sapiens, UniProt Q13304)",
  "sequence (Q13304 29-367)": "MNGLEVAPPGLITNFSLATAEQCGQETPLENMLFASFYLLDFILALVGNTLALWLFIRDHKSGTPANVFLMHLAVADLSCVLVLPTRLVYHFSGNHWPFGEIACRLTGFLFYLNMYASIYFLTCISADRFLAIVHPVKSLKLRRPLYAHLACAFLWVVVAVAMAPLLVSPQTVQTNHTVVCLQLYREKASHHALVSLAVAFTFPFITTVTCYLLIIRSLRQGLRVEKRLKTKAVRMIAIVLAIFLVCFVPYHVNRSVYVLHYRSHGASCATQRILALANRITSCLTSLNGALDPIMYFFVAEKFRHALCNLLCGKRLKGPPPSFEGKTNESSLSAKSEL",
  "experiment": "GPR17 cAMP assay (antagonist mode, TR-FRET cAMP detection)",
  "assay_type": "cell-based",
  "conditions": "CHO-K1 cells stably expressing human GPR17 short isoform; with EC80 concentration of agonist MDL29,951, IBMX 0.5mM, forskolin 15µM; normalized to reference antagonist; read-out: hGPR17 cAMP IC50",
  "protocol": "CHO-K1 cells stably expressing vector containing untagged human GPR17 short isoform (Roche) were cultured at 37°C / 5% CO2 in DMEM (Dulbecco's Modified Eagle Medium):F-12 (1:1) supplemented with 10% foetal bovine serum and 400 µg/ml Geneticin.\nChanges in intracellular cyclic adenosine monophosphate (cAMP) levels were quantified using the Nano-TRF Detection Assay kit (Roche Diagnostics, Cat. No. 05214386001). This assay allows for direct cAMP quantification in a homogeneous solution. cAMP is detected based on time-resolved fluorescence energy transfer (TR-FRET) and competitive binding of ruthenylated cAMP and endogenous cAMP to an anti-cAMP monoclonal antibody labeled with AlexaFluor-700. The Ruthenium complex serves as the FRET donor and transfers energy to AlexaFluor-700. The FRET signal is inversely proportional to the cAMP concentration.\nCHO-GPR17S cells were detached with Accutase and resuspended in assay buffer consisting of Hank's Balanced Salt Solution (HBSS), 10mM HEPES (4-(2-hydroxyethyl) piperazine-1-ethanesulfonic acid solution) and 0.1% bovine serum albumin (pH 7.4). The cells were seeded in black 384-well plates (Corning) at a density of 10'000 cells / 20µl assay buffer until the addition of compounds.\nTest antagonist compounds were serially diluted in dimethyl sulfoxide (DMSO) and spotted in 384-well plates. The compounds were then diluted in HBSS buffer supplemented with an EC80 concentration of MDL29,951 (3-(2-Carboxy-4,6-dichloroindol-3-yl)propionic acid) (GPR17 agonist) plus 3-Isobutyl-1-methylxanthine (IBMX) (0.5mM final concentration) and added to the cells at room temperature. Forskolin (15µM final concentration) was added 5 minutes after the test compounds and the cells were incubated at room temperature for 30 minutes. The assay was stopped by adding cAMP detection mix (containing detergents for cell lysis) for 90 minutes at room temperature.\nCellular cAMP was measured using a Paradigm reader (Molecular Devices). The raw data was used to calculate the FRET signal based on the assay's P-factor as per cAMP kit instructions. The data was normalized to the maximal activity of a reference antagonist and dose response curves were fitted to the percent activity of the test compounds using a sigmoidal dose response model (Genedata Screener).\nResults in the hGPR17 cAMP assay are provided for compounds of formula I in Table 1 Table 1: […]",
  "data": [
    {"compound": "COc1nc(NS(=O)(=O)c2c[nH]c3c(-n4nccn4)c(Br)ccc23)nc(OC)c1OCC(F)F", "note": "[Example 30, 6-bromo-N-[5-(2,2-difluoroethoxy)-4,6-dimethoxy-pyrimidin-2-yl]-7-(triazol-2-yl)-1H-indole-3-sulfonamide]", "values": [
      {"measurement": "IC50", "result": 23, "unit": "nM"}
    ]},
    {"compound": "COc1nc(NS(=O)(=O)c2c[nH]c3c(-n4nccn4)c(Br)ccc23)nc(OC)c1C1CC1C#N", "note": "(stereo not drawn) [Example 31, 6-bromo-N-[5-(2-cyanocyclopropyl)-4,6-dimethoxy-pyrimidin-2-yl]-7-(triazol-2-yl)-1H-indole-3-sulfonamide]", "values": [
      {"measurement": "IC50", "result": 30, "unit": "nM"}
    ]},
    {"compound": "COc1nc(NS(=O)(=O)c2c[nH]c3c(-n4nccn4)c(F)ccc23)nc(OC)c1CC(F)F", "note": "[Example 32, N-[5-(2,2-difluoroethyl)-4,6-dimethoxy-pyrimidin-2-yl]-6-fluoro-7-(triazol-2-yl)-1H-indole-3-sulfonamide]", "values": [
      {"measurement": "IC50", "result": 69, "unit": "nM"}
    ]},
    {"compound": "COc1nc(NS(=O)(=O)c2c[nH]c3c(-n4nccn4)c(F)ccc23)nc(OC)c1OCCF", "note": "[Example 33, 6-fluoro-N-[5-(2-fluoroethoxy)-4,6-dimethoxy-pyrimidin-2-yl]-7-(triazol-2-yl)-1H-indole-3-sulfonamide]", "values": [
      {"measurement": "IC50", "result": 141, "unit": "nM"}
    ]},
    {"compound": "COc1nc(NS(=O)(=O)c2c[nH]c3c(-n4nccn4)c(F)ccc23)nc(OC)c1OC(F)F", "note": "[Example 34, N-[5-(difluoromethoxy)-4,6-dimethoxy-pyrimidin-2-yl]-6-fluoro-7-(triazol-2-yl)-1H-indole-3-sulfonamide]", "values": [
      {"measurement": "IC50", "result": 226, "unit": "nM"}
    ]},
    {"compound": "COc1nc(NS(=O)(=O)c2c[nH]c3c(-n4nccn4)c(F)ccc23)nc(OC)c1OCC(F)F", "note": "[Example 35, N-[5-(2,2-difluoroethoxy)-4,6-dimethoxy-pyrimidin-2-yl]-6-fluoro-7-(triazol-2-yl)-1H-indole-3-sulfonamide]", "values": [
      {"measurement": "IC50", "result": 126, "unit": "nM"}
    ]},
    {"compound": "COc1nc(NS(=O)(=O)c2c[nH]c3c(-n4nccn4)c(F)ccc23)nc(OC)c1C1CC1C#N", "note": "(stereo not drawn) [Example 36, N-[5-(2-cyanocyclopropyl)-4,6-dimethoxy-pyrimidin-2-yl]-6-fluoro-7-(triazol-2-yl)-1H-indole-3-sulfonamide]", "values": [
      {"measurement": "IC50", "result": 82, "unit": "nM"}
    ]},
    {"compound": "COc1nc(NS(=O)(=O)c2c[nH]c3c(-n4cncn4)c(Cl)ccc23)nc(OC)c1CC(F)F", "note": "[Example 37, 6-chloro-N-[5-(2,2-difluoroethyl)-4,6-dimethoxy-pyrimidin-2-yl]-7-(1,2,4-triazol-1-yl)-1H-indole-3-sulfonamide]", "values": [
      {"measurement": "IC50", "result": 60, "unit": "nM"}
    ]},
    {"compound": "COc1nc(NS(=O)(=O)c2c[nH]c3c(-n4ncc(C)n4)c(Cl)ccc23)nc(OC)c1OCC(F)F", "note": "[Example 38, 6-chloro-N-[5-(2,2-difluoroethoxy)-4,6-dimethoxy-pyrimidin-2-yl]-7-(4-methyltriazol-2-yl)-1H-indole-3-sulfonamide]", "values": [
      {"measurement": "IC50", "result": 34, "unit": "nM"}
    ]},
    {"compound": "COc1nc(NS(=O)(=O)c2c[nH]c3c(-n4ncc(C)n4)c(Cl)ccc23)nc(OC)c1OCCF", "note": "[Example 39, 6-chloro-N-[5-(2-fluoroethoxy)-4,6-dimethoxy-pyrimidin-2-yl]-7-(4-methyltriazol-2-yl)-1H-indole-3-sulfonamide]", "values": [
      {"measurement": "IC50", "result": 55, "unit": "nM"}
    ]},
    {"compound": "COc1nc(NS(=O)(=O)c2c[nH]c3c(-n4ccnn4)c(Cl)ccc23)nc(OC)c1CC(F)F", "note": "[Example 40, 6-chloro-N-[5-(2,2-difluoroethyl)-4,6-dimethoxy-pyrimidin-2-yl]-7-(triazol-1-yl)-1H-indole-3-sulfonamide]", "values": [
      {"measurement": "IC50", "result": 40, "unit": "nM"}
    ]},
    {"compound": "COc1nc(NS(=O)(=O)c2c[nH]c3c(-n4nccn4)c(C(F)F)ccc23)nc(OC)c1OCCF", "note": "[Example 41, 6-(difluoromethyl)-N-[5-(2-fluoroethoxy)-4,6-dimethoxy-pyrimidin-2-yl]-7-(triazol-2-yl)-1H-indole-3-sulfonamide]", "values": [
      {"measurement": "IC50", "result": 64, "unit": "nM"}
    ]},
    {"compound": "COc1nc(NS(=O)(=O)c2c[nH]c3c(-n4nccn4)c(C(F)F)ccc23)nc(OC)c1CC(F)F", "note": "[Example 42, N-[5-(2,2-difluoroethyl)-4,6-dimethoxy-pyrimidin-2-yl]-6-(difluoromethyl)-7-(triazol-2-yl)-1H-indole-3-sulfonamide]", "values": [
      {"measurement": "IC50", "result": 50, "unit": "nM"}
    ]},
    {"compound": "COc1nc(NS(=O)(=O)c2c[nH]c3c(-n4cc(C)cn4)c(Cl)ccc23)nc(OC)c1OCC(F)F", "note": "[Example 43, 6-chloro-N-[5-(2,2-difluoroethoxy)-4,6-dimethoxy-pyrimidin-2-yl]-7-(4-methylpyrazol-1-yl)-1H-indole-3-sulfonamide]", "values": [
      {"measurement": "IC50", "result": 29, "unit": "nM"}
    ]},
    {"compound": "COc1nc(NS(=O)(=O)c2c[nH]c3c(-n4ccc(C)n4)c(Cl)ccc23)nc(OC)c1OCC(F)F", "note": "[Example 44, 6-chloro-N-[5-(2,2-difluoroethoxy)-4,6-dimethoxy-pyrimidin-2-yl]-7-(3-methylpyrazol-1-yl)-1H-indole-3-sulfonamide]", "values": [
      {"measurement": "IC50", "result": 23, "unit": "nM"}
    ]},
    {"compound": "COc1nc(NS(=O)(=O)c2c[nH]c3c(-n4cc(F)cn4)c(Cl)ccc23)nc(OC)c1OCC(F)F", "note": "[Example 45, 6-chloro-N-[5-(2,2-difluoroethoxy)-4,6-dimethoxy-pyrimidin-2-yl]-7-(4-fluoropyrazol-1-yl)-1H-indole-3-sulfonamide]", "values": [
      {"measurement": "IC50", "result": 25, "unit": "nM"}
    ]},
    {"compound": "COc1nc(NS(=O)(=O)c2c[nH]c3c(-n4nccc4C)c(Cl)ccc23)nc(OC)c1OCC(F)F", "note": "[Example 46, 6-chloro-N-[5-(2,2-difluoroethoxy)-4,6-dimethoxy-pyrimidin-2-yl]-7-(5-methylpyrazol-1-yl)-1H-indole-3-sulfonamide]", "values": [
      {"measurement": "IC50", "result": 45, "unit": "nM"}
    ]},
    {"compound": "COc1nc(NS(=O)(=O)c2c[nH]c3c(-n4cc(F)cn4)c(Cl)ccc23)nc(OC)c1OCCF", "note": "[Example 47, 6-chloro-N-[5-(2-fluoroethoxy)-4,6-dimethoxy-pyrimidin-2-yl]-7-(4-fluoropyrazol-1-yl)-1H-indole-3-sulfonamide]", "values": [
      {"measurement": "IC50", "result": 26, "unit": "nM"}
    ]},
    {"compound": "COc1nc(NS(=O)(=O)c2c[nH]c3c(-n4cc(F)cn4)c(Cl)ccc23)nc(OC)c1OC(F)F", "note": "[Example 48, 6-chloro-N-[5-(difluoromethoxy)-4,6-dimethoxy-pyrimidin-2-yl]-7-(4-fluoropyrazol-1-yl)-1H-indole-3-sulfonamide]", "values": [
      {"measurement": "IC50", "result": 69, "unit": "nM"}
    ]},
    {"compound": "COc1nc(NS(=O)(=O)c2c[nH]c3c(-n4cccn4)c(C(F)F)ccc23)nc(OC)c1OC(F)F", "note": "[Example 49, N-[5-(difluoromethoxy)-4,6-dimethoxy-pyrimidin-2-yl]-6-(difluoromethyl)-7-pyrazol-1-yl-1H-indole-3-sulfonamide]", "values": [
      {"measurement": "IC50", "result": 108, "unit": "nM"}
    ]},
    {"compound": "COc1nc(NS(=O)(=O)c2c[nH]c3c(-n4cccn4)c(C(F)F)ccc23)nc(OC)c1OCC(F)F", "note": "[Example 50, N-[5-(2,2-difluoroethoxy)-4,6-dimethoxy-pyrimidin-2-yl]-6-(difluoromethyl)-7-pyrazol-1-yl-1H-indole-3-sulfonamide]", "values": [
      {"measurement": "IC50", "result": 65, "unit": "nM"}
    ]},
    {"compound": "COc1nc(NS(=O)(=O)c2c[nH]c3c(-n4cccn4)c(C(F)F)ccc23)nc(OC)c1OCCF", "note": "[Example 51, 6-(difluoromethyl)-N-[5-(2-fluoroethoxy)-4,6-dimethoxy-pyrimidin-2-yl]-7-pyrazol-1-yl-1H-indole-3-sulfonamide]", "values": [
      {"measurement": "IC50", "result": 94, "unit": "nM"}
    ]},
    {"compound": "COc1nc(NS(=O)(=O)c2c[nH]c3c(-n4cccn4)c(C(F)F)ccc23)nc(OC)c1CC(F)F", "note": "[Example 52, N-[5-(2,2-difluoroethyl)-4,6-dimethoxy-pyrimidin-2-yl]-6-(difluoromethyl)-7-pyrazol-1-yl-1H-indole-3-sulfonamide]", "values": [
      {"measurement": "IC50", "result": 68, "unit": "nM"}
    ]},
    {"compound": "COc1nc(NS(=O)(=O)c2c[nH]c3c(-n4ccc(F)n4)c(Cl)ccc23)nc(OC)c1OCC(F)F", "note": "[Example 53, 6-chloro-N-[5-(2,2-difluoroethoxy)-4,6-dimethoxy-pyrimidin-2-yl]-7-(3-fluoropyrazol-1-yl)-1H-indole-3-sulfonamide]", "values": [
      {"measurement": "IC50", "result": 25, "unit": "nM"}
    ]}
  ]
}
